Experiments:
HL-60 = test: Cell differentiation activity towards HL-60 cells assessed in terms of 4-nitro-blue tetrazolium (NBT) reactivity; format: functional, Homo sapiens
[1] = biological target: T1, Vitamin D3 receptor (Gallus gallus) (UniProt O42392); test: Relative binding affinity for chick intestinal Vitamin D3 receptor (VDR)
T1 sequence (whole entry): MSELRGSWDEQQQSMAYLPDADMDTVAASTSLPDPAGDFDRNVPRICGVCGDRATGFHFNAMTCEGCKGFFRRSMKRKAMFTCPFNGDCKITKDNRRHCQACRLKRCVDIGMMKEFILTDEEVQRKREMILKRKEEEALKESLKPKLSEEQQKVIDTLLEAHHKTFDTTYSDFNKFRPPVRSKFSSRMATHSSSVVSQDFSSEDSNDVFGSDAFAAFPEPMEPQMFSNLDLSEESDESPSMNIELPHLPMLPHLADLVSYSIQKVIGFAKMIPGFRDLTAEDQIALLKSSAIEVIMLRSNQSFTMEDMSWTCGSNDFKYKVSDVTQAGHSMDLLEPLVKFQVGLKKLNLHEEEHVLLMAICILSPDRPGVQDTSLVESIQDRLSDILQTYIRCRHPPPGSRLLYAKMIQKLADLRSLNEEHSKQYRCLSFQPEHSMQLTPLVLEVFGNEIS

| SMILES | Activity (HL-60) | Binding affinity [1] |
| --- | --- | --- |
| C=C1/C(=C\C=C2/CCC[C@]3(C)[C@@H]([C@H](C)CC[C@H](O)C(C)C)CC[C@@H]23)C[C@@H](O)C[C@@H]1O | 18 | 10 |
| C=C1/C(=C\C=C2/CCC[C@]3(C)[C@@H]([C@H](C)CC[C@H](O)C(C)(C)[N+](=O)[O-])CC[C@@H]23)C[C@@H](O)C[C@@H]1O | 12 | 10 |
| C=C1/C(=C\C=C2/CCC[C@]3(C)[C@@H]([C@H](C)CC[C@@H](O)C(C)C)CC[C@@H]23)C[C@@H](O)C[C@@H]1O [TACALCITOL] | 182 | 131 |
| C=C1/C(=C\C=C2/CCC[C@]3(C)[C@@H]([C@H](C)CC[C@@H](O)C(C)(C)[N+](=O)[O-])CC[C@@H]23)C[C@@H](O)C[C@@H]1O | 182 | 93 |
| C=C1/C(=C\C=C2/CCC[C@]3(C)[C@@H]([C@H](C)CCCC(C)(C)O)CC[C@@H]23)C[C@@H](O)C[C@@H]1O [CALCITRIOL] | 100 | 100 |
